Data from patent US11884675B2, “Heterocyclic compounds as triggering receptor expressed on myeloid cells 2 agonists and methods of use” (AMGEN INC., priority 2020, dated 2024).

Target: hTREM2 (Homo sapiens, UniProt Q9NZC2)
Assay: TREM2 activity by cellular Syk phosphorylation (AlphaScreen/AlphaLISA) in TREM2/DAP12-HEK cells, used for Examples 1-305
Format: cell-based
Parameters: expressed in transfected cells
Details: HEK293 Cells
Method in brief: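 Phospho-Syk (Tyr525/526) over total Syk quantified by AlphaScreen in lysates of cloned TREM2/DAP12-overexpressing HEK293 cells after 45 min compound treatment at room temperature, 1% final DMSO. Values expressed relative to 100 nM anti-TREM2 antibody (positive) and isotype IgG (negative) controls; curves fitted with 4-parameter logistic model.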

hTREM2, sequence (Q9NZC2 19-230): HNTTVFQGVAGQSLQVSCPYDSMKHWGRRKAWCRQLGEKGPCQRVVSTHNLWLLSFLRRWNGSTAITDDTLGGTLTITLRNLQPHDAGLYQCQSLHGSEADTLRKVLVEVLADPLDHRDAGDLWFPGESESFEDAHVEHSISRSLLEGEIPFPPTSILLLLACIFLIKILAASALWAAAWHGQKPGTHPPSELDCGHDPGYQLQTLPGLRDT
hTREM2, sequence (O43914 22-113 partner): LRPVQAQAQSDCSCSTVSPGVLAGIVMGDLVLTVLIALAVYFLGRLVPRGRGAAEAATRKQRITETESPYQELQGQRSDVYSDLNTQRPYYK

| SMILES | EC50 [nM] | hTREM2 Emax |
| --- | --- | --- |
| Cc1cc([C@H]2CN(c3nc4nc(C)c(C)nc4c([C@H]4C[C@H](C(F)(F)F)C4)n3)CCO2)ccn1 [Example 55] | ≤ 50 | +++ (Emax>150 and ≤250) |
| Cc1cnc2c(-c3ccc(Cl)cc3F)nc([C@@H]3CCO[C@H](c4cnc(C)nc4)C3)nc2n1 (single isomer, unassigned) [Example 174] | 50 to 500 | +++ (Emax>150 and ≤250) |
| Cc1nc2nc(N3CCO[C@@H](c4cnn(C)c4)C3)nc(C3CCC(Cl)CC3)c2nc1C (mixture of isomers) [Example 165, 4-(trans-4-chlorocyclohexyl)-6,7-dimethyl-2-((2S)-2-(1-methyl-1H-pyrazol-4-yl)-4-morpholinyl) pteridine] | ≤ 50 | +++ (Emax>150 and ≤250) |
| Cc1ccc2c(n1)nc(N1CCO[C@@H](c3cnn(C4CC4)c3)C1)nc2[C@H]1CC[C@@H](C(F)(F)F)CC1 [Example 144, 2-((2S)-2-(1-cyclopropyl-1H-pyrazol-4-yl)-4-morpholinyl)-7-methyl-4-(cis-4-(trifluoromethyl)cyclohexyl)pyrido [2,3-d]pyrimidine] | 50 to 500 | ++ (Emax>100 and ≤150) |
| Cc1nc2nc(N3CCO[C@@H](c4cnn(C)c4)C3)nc([C@H]3CC[C@H](C)CC3)c2nc1C [Example 136, 6,7-dimethyl-4-(trans-4-methylcyclohexyl)-2-((2S)-2-(1-methyl-1H-pyrazol-4-yl)-4-morpholinyl)pteridine] | ≤ 50 | +++ (Emax>150 and ≤250) |
| Cc1ccc(-c2cc([C@H]3CCO[C@@H](c4cnn(C)c4)C3)nc3nc(C)c(C)nc23)c(F)c1 (single isomer, unassigned) [Example 190] | ≤ 50 | +++ (Emax>150 and ≤250) |
| Cc1ccc2c(-c3ccc(Cl)cc3F)nc(N3CCO[C@@H](c4cnn(C5CC5)c4)C3)nc2n1 [Example 85, 4-(4-chloro-2-fluorophenyl)-2-((2S)-2-(1-cyclopropyl-1H-pyrazol-4-yl)-4-morpholinyl)-7-methylpyrido[2,3-d]pyrimidine] | ≤ 50 | +++ (Emax>150 and ≤250) |
| Cc1nc2cc([C@@H]3CCO[C@H](c4cnn(C)c4)C3)nc(-c3ccc(Cl)cc3F)c2nc1C (single isomer, unassigned) [Example 193] | 50 to 500 | ++++ (Emax>250) |
| Cc1cnc2c(-c3ccc(Cl)cc3F)nc(N3CCO[C@@H](c4cnn(C5CC5)c4)C3)cc2n1 [Example 76, 5-(4-chloro-2-fluorophenyl)-7-((2S)-2-(1-cyclopropyl-1H-pyrazol-4-yl)-4-morpholinyl)-2-methylpyrido[3,4-b]pyrazine] | 50 to 500 | ++++ (Emax>250) |
| Cc1nc2nc(N3CCO[C@@H](c4cnn(C)c4)C3)nc(-c3cc(F)c(F)cc3F)c2nc1C [Example 62, 6,7-dimethyl-2-((2S)-2-(1-methyl-1H-pyrazol-4-yl)-4-morpholinyl)-4-(2,4,5-trifluorophenyl)pteridine] | ≤ 50 | ++++ (Emax>250) |
| Cc1cc2c(-c3ccc(Cl)cc3F)nc([C@@H]3CCO[C@H](c4cnn(C5CC5)c4)C3)nc2nc1C (single isomer, unassigned) [Example 198] | 50 to 500 | +++ (Emax>150 and ≤250) |
| Cc1cc([C@H]2CN(c3nc(C4CC5(C4)CC(F)(F)C5)c4nc(C)c(C)nc4n3)CCO2)ccn1 [Example 56, 4-(6,6-difluorospiro[3.3]heptan-2-yl)-6,7-dimethyl-2-((2S)-2-(2-methyl-4-pyridinyl)-4-morpholinyl)pteridine] | ≤ 50 | ++ (Emax>100 and ≤150) |
| Cc1nc2nc(N3CCO[C@@H](c4cnn(C5CC5)c4)C3)nc([C@H]3C[C@H](C(F)F)C3)c2nc1C [Example 48, 2-((2S)-2-(1-cyclopropyl-1H-pyrazol-4-yl)-4-morpholinyl)-4-(trans-3-(difluoromethyl)cyclobutyl)-6,7-dimethylpteridine] | ≤ 50 | ++ (Emax>100 and ≤150) |
| Cc1nc2nc(N3CCC(F)(F)[C@@H](c4cnn(C)c4)C3)nc(-c3ccc(Cl)cc3F)c2nc1C (single isomer, unassigned) [Example 123] | ≤ 50 | +++ (Emax>150 and ≤250) |
| Cc1nc2nc(N3CCO[C@@H](c4cnn(C)c4)C3)nc(N3CCC(F)(F)C3)c2nc1C [Example 71, 4-(3,3-difluoro-1-pyrrolidinyl)-6,7-dimethyl-2-((2S)-2-(1-methyl-1H-pyrazol-4-yl)-4-morpholinyl)pteridine] | 3000 to 100000 | ++ (Emax>100 and ≤150) |
| CN1Cc2c(cc(N3CCO[C@@H](c4cnn(C5CC5)c4)C3)nc2-c2ccc(Cl)cc2F)C1=O [Example 120, 4-(4-chloro-2-fluorophenyl)-6-((2S)-2-(1-cyclopropyl-1H-pyrazol-4-yl)-4-morpholinyl)-2-methyl-2,3-dihydro-1H-pyrrolo[3,4-c]pyridin-1-one] | 50 to 500 | ++++ (Emax>250) |
| Cc1nc2nc(N3CCO[C@@H](c4cnn(C)c4)C3)nc([C@H]3C[C@H](C(F)F)C3)c2nc1C [Example 45, 4-(trans-3-(difluoromethyl)cyclobutyl)-6,7-dimethyl-2-((2S)-2-(1-methyl-1H-pyrazol-4-yl)-4-morpholinyl)pteridine] | 50 to 500 | ++ (Emax>100 and ≤150) |
| Cc1ccc2c(C3CCC(F)(F)CC3)nc(N3CCO[C@@H](c4cnn(C5CC5)c4)C3)nc2n1 [Example 143, 2-((2S)-2-(1-cyclopropyl-1H-pyrazol-4-yl)-4-morpholinyl)-4-(4,4-difluorocyclohexyl)-7-methylpyrido [2,3-d]pyrimidine] | 50 to 500 | +++ (Emax>150 and ≤250) |

Other lines, results leading:

| EC50 [nM] | hTREM2 Emax | SMILES |
| --- | --- | --- |
| 50 to 500 | ++++ (Emax>250) | Cc1cc([C@@H]2C[C@H](c3nc4nc(C)c(C)nc4c([C@H]4C[C@H](C(F)(F)F)C4)n3)CCO2)ccn1 (single isomer, unassigned) [Example 214] |
| 500 to 3000 | +++ (Emax>150 and ≤250) | Cc1cnc2c(-c3ccc(Cl)cc3F)nc([C@@H]3CCO[C@H](c4cnn(C)c4)C3)cc2n1 [Example 248, 5-(4-chloro-2-fluorophenyl)-2-methyl-7-((2S,4R)-2-(1-methyl-1H-pyrazol-4-yl)tetrahydro-2H-pyran-4-yl)pyrido[3,4-b] pyrazine] |
| 500 to 3000 | ++ (Emax>100 and ≤150) | Cc1nc2nc([C@@H]3CCO[C@H](c4cnn(C)c4)C3)nc(-c3ccc(F)cc3F)c2nc1C [Example 256, 4-(2,4-difluorophenyl)-6,7-dimethyl-2-((2S,4R)-2-(1-methyl-1H-pyrazol-4-yl)tetrahydro-2H-pyran-4-yl)pteridine] |
| 500 to 3000 | +++ (Emax>150 and ≤250) | Cc1nc2nc([C@H]3CCO[C@H](c4cnn(C)c4)C3)nc(-c3ccc(F)cc3F)c2nc1C [Example 263, 4-(2,4-difluorophenyl)-6,7-dimethyl-2-((2S,4S)-2-(1-methyl-1H-pyrazol-4-yl)tetrahydro-2H-pyran-4-yl)pteridine] |
| 3000 to 100000 | ++++ (Emax>250) | Cc1nc2cc([C@@H]3CCO[C@@H](c4cnn(C)c4)C3)nc(-c3ccc(Cl)cc3F)c2nc1C [Example 245, 5-(4-chloro-2-fluorophenyl)-2,3-dimethyl-7-((2R,4R)-2-(1-methyl-1H-pyrazol-4-yl)tetrahydro-2H-pyran-4-yl)pyrido[3,4-b]pyrazine] |
| 50 to 500 | ++++ (Emax>250) | Cc1nc2nc(C3CCO[C@H](c4cnn(C)c4)C3)nc(-c3ccc(Cl)cc3F)c2nc1C (stereo in doubt) [Example 276, 4-(4-chloro-2-fluorophenyl)-6,7-dimethyl-2-((2S,4R)-2-(1-methyl-1H-pyrazol-4-yl)tetrahydro-2H-pyran-4-yl)pteridine] |
| ≤ 50 | +++ (Emax>150 and ≤250) | Cc1nc2nc([C@@H]3CCO[C@H](c4cnn(C)c4)C3)nc(-c3ccc(Cl)cc3F)c2nc1C [Example 242, 4-(4-chloro-2-fluorophenyl)-6,7-dimethyl-2-((2S,4R)-2-(1-methyl-1H-pyrazol-4-yl)tetrahydro-2H-pyran-4-yl)pteridine] |
| ≤ 50 | ++++ (Emax>250) | Cc1cc([C@H]2C[C@@H](c3nc(-c4ccc(F)cc4F)c4nc(C)c(C)nc4n3)CCO2)ccn1 (single isomer, unassigned) [Example 211] |
| 500 to 3000 | +++ (Emax>150 and ≤250) | Cc1nc2nc([C@@H]3CCO[C@H](c4cnn(C)c4)C3)cc(-c3ccc(Cl)cc3F)c2nc1C [Example 250, 8-(4-chloro-2-fluorophenyl)-2,3-dimethyl-6-((2S,4R)-2-(1-methyl-1H-pyrazol-4-yl)tetrahydro-2H-pyran-4-yl)pyrido[2,3-b]pyrazine] |
| 500 to 3000 | +++ (Emax>150 and ≤250) | Cc1cnc2c(-c3ccc(Cl)cc3F)nc(N3CCO[C@H](c4cnc(C)nc4)C3)nc2n1 [Example 261, (R)-4-(4-(4-chloro-2-fluorophenyl)-7-methylpteridin-2-yl)-2-(2-methylpyrimidin-5-yl)morpholine] |
| 500 to 3000 | ++ (Emax>100 and ≤150) | Cc1cc2c(-c3ccc(F)cc3F)nc([C@@H]3CCO[C@@H](c4cnn(C)c4)C3)nc2nc1C [Example 267, 4-(2,4-difluorophenyl)-6,7-dimethyl-2-((2R,4R)-2-(1-methyl-1H-pyrazol-4-yl)tetrahydro-2H-pyran-4-yl)pyrido[2,3-d]pyrimidine] |
| 500 to 3000 | ++++ (Emax>250) | Cc1ccc(-c2cc([C@H]3CCO[C@H](c4cnn(C)c4)C3)nc3nc(C)c(C)nc23)c(F)c1 [Example 266, 8-(2-fluoro-4-methylphenyl)-2,3-dimethyl-6-((2S,4S)-2-(1-methyl-1H-pyrazol-4-yl)tetrahydro-2H-pyran-4-yl)pyrido[2,3-b]pyrazine] |
